Biological target: HSD17B13 (Homo sapiens (Human), UniProt Q7Z5P4)
Test: LC/MS estrone detection assay: conversion of estradiol to estrone by HSD17B13
Format: biochemical
Conditions: 4 μM estradiol, 6 mM NAD+, 30 nM HSD17B13 enzyme (E. coli expressed His-tagged), 2 hours at 26.5° C.
Outline: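 His-tagged E. coli-expressed HSD17B13 (30 nM) with 4 μM estradiol and 6 mM NAD+ in 1 M potassium phosphate pH 7.4, 0.5% DMSO, 2 h at 26.5° C. Estrone and estradiol quantified by LC-MS/MS after MeCN quench with D4-estrone internal standard; activity as % of uninhibited enzyme, IC50 by four-parameter fit, duplicates.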

Sequence of HSD17B13 (Q7Z5P4 20-300): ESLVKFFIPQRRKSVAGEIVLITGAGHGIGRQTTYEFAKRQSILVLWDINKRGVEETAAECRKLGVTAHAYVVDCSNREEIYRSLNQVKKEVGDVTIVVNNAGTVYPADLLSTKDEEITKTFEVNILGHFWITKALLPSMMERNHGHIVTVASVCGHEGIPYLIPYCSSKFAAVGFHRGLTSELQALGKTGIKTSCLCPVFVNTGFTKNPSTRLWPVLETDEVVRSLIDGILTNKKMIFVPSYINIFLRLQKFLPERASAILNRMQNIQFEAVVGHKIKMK

Row | SMILES | IC50 [nM]
1 | Cc1ccc(NC(=O)c2cc(Cl)c(O)c(Cl)c2)c2c(=O)n(Cc3ncccc3F)c(C)nc12 [Example 183, 3,5-dichloro-N-(3-((3-fluoropyridin-2-yl)methyl)-2,8-dimethyl-4-oxo-3,4-dihydroquinazolin-5-yl)-4-hydroxybenzamide] | 100 to 500
2 | [2H]C([2H])([2H])c1nc2c(F)ccc(NC(=O)c3cc(Cl)c(O)c(Cl)n3)c2c(=O)n1Cc1ccccc1C(F)(F)F [Example 184, 4,6-dichloro-N-(8-fluoro-2-(methyl-d3)-4-oxo-3-(2-(trifluoromethyl)benzyl)-3,4-dihydroquinazolin-5-yl)-5-hydroxypicolinamide] | 100 to 500
3 | Cc1ccc(NC(=O)c2cc(Cl)c(O)c(Cl)c2)c2c(=O)n(Cc3ccccc3C(F)(F)F)c(CF)nc12 [Example 186, 3,5-dichloro-N-(2-(fluoromethyl)-8-methyl-4-oxo-3-(2-(trifluoromethyl)benzyl)-3,4-dihydroquinazolin-5-yl)-4-hydroxybenzamide] | ≤ 100
4 | Cn1nc(CNC(=O)c2ncsc2NC(=O)c2cc(Cl)c(O)c(Cl)n2)c2ccccc21 [Example 187, 5-(4,6-dichloro-5-hydroxypicolinamido)-N-((1-methyl-1H-indazol-3-yl)methyl)thiazole-4-carboxamide] | 100 to 500
5 | Cn1nc(CNC(=O)c2ncsc2NC(=O)c2cc(Cl)c(O)c(Cl)c2)c2ccccc21 [Example 188, 5-(3,5-dichloro-4-hydroxybenzamido)-N-((1-methyl-1H-indazol-3-yl)methyl)thiazole-4-carboxamide] | ≤ 100
6 | O=C(Nc1scnc1C(=O)NCc1cccc(F)c1)c1cc(Cl)c(O)c(Cl)n1 [Example 189, 5-(4,6-dichloro-5-hydroxypicolinamido)-N-(3-fluorobenzyl)thiazole-4-carboxamide] | 100 to 500
7 | Cc1nc2c(F)ccc(NC(=O)c3cc(Cl)c(O)c(Cl)c3)c2c(=O)n1Cc1nn(C)c2ccccc12 [Example 190, 3,5-dichloro-N-(8-fluoro-2-methyl-3-((1-methyl-1H-indazol-3-yl)methyl)-4-oxo-3,4-dihydroquinazolin-5-yl)-4-hydroxybenzamide] | ≤ 100
8 | O=C(Nc1scnc1C(=O)NCc1ccccc1OC(F)(F)F)c1cc(Cl)c(O)c(Cl)n1 [Example 191, 5-(4,6-dichloro-5-hydroxypicolinamido)-N-(2-(trifluoromethoxy)benzyl) thiazole-4-carboxamide] | ≤ 100
9 | O=C(Nc1scnc1C(=O)NCc1ccccc1C(F)(F)F)c1cc(Cl)c(O)c(Cl)n1 [Example 192, 5-(4,6-dichloro-5-hydroxypicolinamido)-N-(2-(trifluoromethyl)benzyl)thiazole-4-carboxamide] | 100 to 500
10 | O=C(Nc1scnc1C(=O)NCc1cccc(C(F)(F)F)n1)c1cc(Cl)c(O)c(Cl)n1 [Example 193, 5-(4,6-dichloro-5-hydroxypicolinamido)-N-((6-(trifluoromethyl)pyridin-2-yl)methyl)thiazole-4-carboxamide] | 500 to 1000
11 | Cc1nc2c(F)ccc(NC(=O)c3cc(Cl)c(O)c(Cl)n3)c2c(=O)n1Cc1nn(C)c2ccccc12 [Example 194, 4,6-dichloro-N-(8-fluoro-2-methyl-3-((1-methyl-1H-indazol-3-yl)methyl)-4-oxo-3,4-dihydroquinazolin-5-yl)-5-hydroxypicolinamide] | 100 to 500
12 | Cc1ccc(NC(=O)c2cc(Cl)c(O)c(Cl)n2)c2c(=O)n(Cc3ncccc3F)c(C)nc12 [Example 195, 4,6-dichloro-N-(3-((3-fluoropyridin-2-yl)methyl)-2,8-dimethyl-4-oxo-3,4-dihydroquinazolin-5-yl)-5-hydroxypicolinamide] | 1000 to 10000
13 | O=C(Nc1scnc1C(=O)NCc1ncccc1C(F)(F)F)c1cc(Cl)c(O)c(Cl)n1 [Example 196, 5-(4,6-dichloro-5-hydroxypicolinamido)-N-((3-(trifluoromethyl)pyridin-2-yl)methyl)thiazole-4-carboxamide] | 100 to 500
14 | Cc1nc2c(F)ccc(NC(=O)c3cc(Cl)c(O)c(Cl)c3)c2c(=O)n1Cc1cccc(C(F)(F)F)n1 [Example 197, 3,5-dichloro-N-(8-fluoro-2-methyl-4-oxo-3-((6-(trifluoromethyl)pyridin-2-yl)methyl)-3,4-dihydroquinazolin-5-yl)-4-hydroxybenzamide] | 500 to 1000
15 | O=C(Nc1scnc1C(=O)NCc1cccc(C(F)(F)F)n1)c1cc(Cl)c(O)c(Cl)c1 [Example 198, 5-(3,5-dichloro-4-hydroxybenzamido)-N-((6-(trifluoromethyl)pyridin-2-yl)methyl)thiazole-4-carboxamide] | 500 to 1000
16 | Cc1ccc(NC(=O)c2cc(Cl)c(O)c(Cl)c2)c2c(=O)n(Cc3cccc(C(F)(F)F)n3)c(C)nc12 [Example 199, 3,5-dichloro-N-(2,8-dimethyl-4-oxo-3-((6-(trifluoromethyl)pyridin-2-yl)methyl)-3,4-dihydroquinazolin-5-yl)-4-hydroxybenzamide] | 500 to 1000
17 | [2H]C([2H])(c1ccccc1C(F)(F)F)n1c(C)nc2c(C)ccc(NC(=O)c3cc(Cl)c(O)c(Cl)c3)c2c1=O [Example 200, 3,5-dichloro-N-(2,8-dimethyl-4-oxo-3-((2-(trifluoromethyl)phenyl)methyl-d2)-3,4-dihydroquinazolin-5-yl)-4-hydroxybenzamide] | ≤ 100
18 | [2H]C([2H])(c1ccccc1C(F)(F)F)n1c(C)nc2c(C)ccc(NC(=O)c3cc(Cl)c(O)c(Cl)n3)c2c1=O [Example 201, 4,6-dichloro-N-(2,8-dimethyl-4-oxo-3-{[2-(trifluoromethyl)phenyl](^2H2)methyl}-3,4-dihydroquinazolin-5-yl)-5-hydroxypyridine-2-carboxamide] | 100 to 500
19 | Cc1ccc(NC(=O)c2cc(Cl)c(O)c(Cl)n2)c2c(=O)n([C@@H]3CC[C@H]3c3ccccc3)c(C)nc12 [Example 202, 4,6-dichloro-N-(2,8-dimethyl-4-oxo-3-((1R,2S)-2-phenylcyclobutyl)-3,4-dihydroquinazolin-5-yl)-5-hydroxypicolinamide] | 100 to 500
20 | Cc1ccc(NC(=O)c2cc(Cl)c(O)c(Cl)c2)c2c(=O)n([C@@H]3CC[C@H]3c3ccccc3)c(C)nc12 [Example 203, 3,5-dichloro-N-(2,8-dimethyl-4-oxo-3-((1R,2S)-2-phenylcyclobutyl)-3,4-dihydroquinazolin-5-yl)-4-hydroxybenzamide] | ≤ 100
21 | O=C(Nc1ccc(F)c2ncn(Cc3ccccc3C(F)(F)F)c(=O)c12)c1cc(Cl)c(O)c(Cl)c1 [Example 204, 3,5-dichloro-N-(8-fluoro-4-oxo-3-(2-(trifluoromethyl)benzyl)-3,4-dihydroquinazolin-5-yl)-4-hydroxybenzamide] | ≤ 100
22 | Cc1ccc(NC(=O)c2cc(Cl)c(O)c(Cl)n2)c2c(=O)n(Cc3cccc(C(F)(F)F)n3)c(C)nc12 [Example 205, 4,6-dichloro-N-(2,8-dimethyl-4-oxo-3-((6-(trifluoromethyl)pyridin-2-yl)methyl)-3,4-dihydroquinazolin-5-yl)-5-hydroxypicolinamide] | 500 to 1000
23 | O=C(Nc1ccc(F)c2ncn(Cc3ccccc3C(F)(F)F)c(=O)c12)c1cc(Cl)c(O)c(Cl)n1 [Example 206, 4,6-dichloro-N-(8-fluoro-4-oxo-3-(2-(trifluoromethyl)benzyl)-3,4-dihydroquinazolin-5-yl)-5-hydroxypicolinamide] | ≤ 100
24 | Cc1nc2c(F)ccc(NC(=O)c3cc(Cl)c(O)c(Cl)n3)c2c(=O)n1[C@H]1CC[C@@H]1c1ccccc1 [Example 207, 4,6-dichloro-N-(8-fluoro-2-methyl-4-oxo-3-((1S,2R)-2-phenylcyclobutyl)-3,4-dihydroquinazolin-5-yl)-5-hydroxypicolinamide] | 100 to 500

— patent US20230278981A1, “DICHLOROPHENOL HSD17B13 INHIBITORS AND USES THEREOF” (INIPHARM, INC., priority 2020, published 2023)
